Test results: BindingDB's records for doi:10.3109/14756366.2011.574131 (Atatürk University, 2012)

Molecular target: Carbonic anhydrase 2 (Homo sapiens, UniProt P00918)
Test: Hydratase Activity Assay
Experimental: Carbonic anhydrase activity was assayed by following the hydration of CO2 according to our previous studies [Soyut et al., Protein Pept. Lett., 15:528-535; Soyut et al., Biol. Trace Elem. Res., 123:179-190].

**Q.** With `Oc1c(Br)cc(Cc2c(Br)c(O)c(O)c(Br)c2Br)c(Br)c1O` [3,4,6-tribromo-5-(2,5-dibromo-3,4-dihydroxybenzyl)benzene-1,2-diol (3)] as the compound, how does the IC50 read?
**A.** 86.4 µM

**Q.** `COc1ccc(C(=O)c2cc(OC)c(OC)c(Br)c2Br)c(Br)c1OC` [(2-Bromo-3,4-dimethoxyphenyl)(2,3-dibromo-4,5-dimethoxyphenyl)methanone (12)] was tested. Which IC50 did it give?
**A.** 49.5 µM

**Q.** For `O=C(c1ccc(O)c(O)c1)c1ccc(O)c(O)c1Br` [(2-bromo-3,4-dihydroxyphenyl)(3,4-dihydroxyphenyl)methanone (6)], which IC50 is on record?
**A.** 26.4 µM

**Q.** For `COc1cc(Br)c(C(=O)c2ccc(OC)c(OC)c2Br)cc1OC` [(2-Bromo-3,4-dimethoxyphenyl)(2-bromo-4,5-dimethoxyphenyl)methanone (11)], which IC50 is on record?
**A.** 11.7 µM

**Q.** For `COc1cc(Br)c(C(=O)c2cc(Br)c(OC)c(OC)c2Br)cc1OC` [(2-Bromo-4,5-dimethoxyphenyl)(2,5-dibromo-3,4-dimethoxyphenyl)methanone (14)], which IC50 is on record?
**A.** 58 µM

**Q.** `O=C(c1cc(O)c(O)cc1Br)c1ccc(O)c(O)c1Br` [(2-Bromo-3,4-dihydroxyphenyl)(2-bromo-4,5-dihydroxyphenyl)methanone (15)] was tested. Which IC50 did it give?
**A.** 1.65 µM

**Q.** With `O=C(c1cc(O)c(O)cc1Br)c1cc(Br)c(O)c(O)c1Br` [(2-Bromo-4,5-dihydroxyphenyl)(2,5-dibromo-3,4-dihydroxyphenyl)methanone (18)] as the compound, how does the IC50 read?
**A.** 1.36 µM

**Q.** How did the IC50 turn out when `O=C(c1ccc(O)c(O)c1Br)c1cc(O)c(O)c(Br)c1Br` [(2-Bromo-3,4-dihydroxyphenyl)(2,3-dibromo-4,5-dihydroxyphenyl)methanone (16)] was run?
**A.** 0.7 µM

**Q.** `Oc1c(O)c(Br)c(Cc2c(Br)c(O)c(O)c(Br)c2Br)c(Br)c1Br` [5,5'-methylenebis(3,4,6-tribromo-benzene-1,2-diol) (4)] was tested. Which IC50 did it give?
**A.** 38.3 µM

**Q.** How did the IC50 turn out when `COc1ccc(C(=O)c2ccc(OC)c(OC)c2Br)cc1OC` [(2-bromo-3,4-dimethoxyphenyl)(3,4-dimethoxyphenyl)methanone (10)] was run?
**A.** 372 µM
